Reference: patent US8815872B2, “Macrocyclics pyrimidines as aurora kinase inhibitors” (Merck Patent GmbH, priority 2008, dated 2014)
“And” between values parts separate entries of the source, which are not always exact repeats. Identical values can stand only once.

Experiments:
Assay in all cases: Other kinases, inhibition at 1 μM (Table 3)
Assay type in all cases: biochemical
IKK-beta = target: T1, IKK-beta (Homo sapiens, UniProt O14920)
T1 construct: purchased Caliper Life Sciences
Procedure: (§1) The Aurora and other kinase assays described here were performed on two Caliper Life Sciences systems, the LC3000 and the Desktop Profiler. These provide data on enzyme activity via measurement of the relative amounts of phosphorylated or unphosphorylated fluorescently labelled substrate peptide at the end of an enzymatic reaction. These different states of peptide are resolved by applying a potential difference across the sample. The presence of a charged phosphate group on the product (as opposed to the substrate) causes a different peptide mobility between the two peptides. This is visualized by excitation of a fluorescent label on the substrate and product peptides and represented as peaks within the analysis software.
(§2) The Desktop Profiler utilizes the same principal as the LC 3000 for calculating percentage conversion of a substrate to product. Caliper Life Sciences provided proprietary flash frozen pre-made 384 well plates containing selected kinases. Each column in the 384 well plate contained a particular selected kinase. A second plate, the ‘substrate plate’ contained a mix of fluorescently labeled peptide substrate and ATP. These were arranged in columns so that transfer for substrate plate to enzyme plate provided the correct enzyme with the correct substrate/ATP concentration.
(§3) Compounds were added to a thawed enzyme plate in the desired format, in single concentrations. Reactions were initiated by transfer of the ubstrate/ATP mix from the substrate plate. The enzyme plate was incubated for 90 mins at 25 °C. The reaction was stopped by addition of […] of Stop Buffer (100 mM HEPES pH 7.5, 0.015% Brij-35, 10 mM EDTA (Sigma, E7889)).
(§4) Plates were read in a manner identical to that of the LC3000, and the ratio between substrate and product peaks provided the activity of the enzyme in that well. This was best represented by a plate heat map which colors each well by percent inhibition as compared to positive and negative controls (no inhibitors and no ATP respectively).

Pim-3 = target: T2, Pim-3 (Homo sapiens, UniProt Q86V86)
T2 construct: purchased Caliper Life Sciences
Procedure: as §1, §2, §3, §4

CHK2 = target: T3, CHK2 (Homo sapiens, UniProt O96017)
T3 construct: purchased Caliper Life Sciences
Procedure: as §1, §2, §3, §4

Syk = target: T4, Syk (Homo sapiens, UniProt P43405)
T4 construct: purchased Caliper Life Sciences
Procedure: as §1, §2, §3, §4

CDK2/cyclin A = target: T5, CDK2/cyclin A (Homo sapiens, UniProt P24941)
T5 construct: purchased Caliper Life Sciences
Procedure: as §1, §2, §3, §4

SAPK2-alpha = target: T6, SAPK2-alpha (Homo sapiens, UniProt Q16539)
T6 construct: purchased Caliper Life Sciences
Procedure: as §1, §2, §3, §4

TBK1 = target: T7, TBK1 (Homo sapiens, UniProt Q9UHD2)
T7 construct: purchased Caliper Life Sciences
Procedure: as §1, §2, §3, §4

PDK1 = target: T8, PDK1 (Homo sapiens, UniProt O15530)
T8 construct: purchased Caliper Life Sciences
Procedure: as §1, §2, §3, §4

MAPK8 = system: MAPK8
Procedure: as §1, §2, §3, §4

Pim-1 = target: T9, Pim-1 (Homo sapiens, UniProt P11309)
T9 construct: purchased Caliper Life Sciences
Procedure: as §1, §2, §3, §4

SGK = target: T10, SGK (Homo sapiens, UniProt O00141)
T10 construct: purchased Caliper Life Sciences
Procedure: as §1, §2, §3, §4

PBK = target: T11, PBK (Homo sapiens, UniProt Q96KB5)
T11 construct: purchased Caliper Life Sciences
Procedure: as §1, §2, §3, §4

AMPK = system: AMPK
Procedure: as §1, §2, §3, §4

MELK = target: T12, MELK (Homo sapiens, UniProt Q14680)
T12 construct: purchased Caliper Life Sciences
Procedure: as §1, §2, §3, §4

MKK1 = target: T13, MKK1 (Homo sapiens, UniProt Q02750)
T13 construct: purchased Caliper Life Sciences
Procedure: as §1, §2, §3, §4

PRK2 = target: T14, PRK2 (Homo sapiens, UniProt Q16513)
T14 construct: purchased Caliper Life Sciences
Procedure: as §1, §2, §3, §4

Nek2a = target: T15, Nek2a (Homo sapiens, UniProt P51955)
T15 construct: purchased Caliper Life Sciences
Procedure: as §1, §2, §3, §4

ROCK-II = target: T16, ROCK-II (Homo sapiens, UniProt O75116)
T16 construct: purchased Caliper Life Sciences
Procedure: as §1, §2, §3, §4

MST2 = target: T17, MST2 (Homo sapiens, UniProt Q13188)
T17 construct: purchased Caliper Life Sciences
Procedure: as §1, §2, §3, §4

PIM-2 = target: T18, PIM-2 (Homo sapiens, UniProt Q9P1W9)
T18 construct: purchased Caliper Life Sciences
Procedure: as §1, §2, §3, §4

IR = target: T19, IR (Homo sapiens, UniProt P06213)
T19 construct: purchased Caliper Life Sciences
Procedure: as §1, §2, §3, §4

SAPK2-beta = target: T20, SAPK2-beta (Homo sapiens, UniProt Q15759)
T20 construct: purchased Caliper Life Sciences
Procedure: as §1, §2, §3, §4

CK1-delta = target: T21, CK1-delta (Homo sapiens, UniProt P48730)
T21 construct: purchased Caliper Life Sciences
Procedure: as §1, §2, §3, §4

CHK1 = target: T22, CHK1 (Homo sapiens, UniProt O14757)
T22 construct: purchased Caliper Life Sciences
Procedure: as §1, §2, §3, §4

DYRK3 = target: T23, DYRK3 (Homo sapiens, UniProt O43781)
T23 construct: purchased Caliper Life Sciences
Procedure: as §1, §2, §3, §4

CK2 = system: CK2
Procedure: as §1, §2, §3, §4

PKC-alpha = target: T24, PKC-alpha (Homo sapiens, UniProt P17252)
T24 construct: purchased Caliper Life Sciences
Procedure: as §1, §2, §3, §4

LCK = target: T25, LCK (Homo sapiens, UniProt P06239)
T25 construct: purchased Caliper Life Sciences
Procedure: as §1, §2, §3, §4

BTK = target: T26, BTK (Homo sapiens, UniProt Q06187)
T26 construct: purchased Caliper Life Sciences
Procedure: as §1, §2, §3, §4

PKB-alpha = target: T27, PKB-alpha (Homo sapiens, UniProt P31749)
T27 construct: purchased Caliper Life Sciences
Procedure: as §1, §2, §3, §4

CSK = target: T28, CSK (Homo sapiens, UniProt P41240)
T28 construct: purchased Caliper Life Sciences
Procedure: as §1, §2, §3, §4

YES1 = target: T29, YES1 (Homo sapiens, UniProt P07947)
T29 construct: purchased Caliper Life Sciences
Procedure: as §1, §2, §3, §4

S6K1 = target: T30, S6K1 (Homo sapiens, UniProt P23443)
T30 construct: purchased Caliper Life Sciences
Procedure: as §1, §2, §3, §4

PLK1 = target: T31, PLK1 (Homo sapiens, UniProt P53350)
T31 construct: purchased Caliper Life Sciences
Procedure: as §1, §2, §3, §4

EphB3 = target: T32, EphB3 (Homo sapiens, UniProt P54753)
T32 construct: purchased Caliper Life Sciences
Procedure: as §1, §2, §3, §4

T31 sequence (P53350 whole entry, species assumed): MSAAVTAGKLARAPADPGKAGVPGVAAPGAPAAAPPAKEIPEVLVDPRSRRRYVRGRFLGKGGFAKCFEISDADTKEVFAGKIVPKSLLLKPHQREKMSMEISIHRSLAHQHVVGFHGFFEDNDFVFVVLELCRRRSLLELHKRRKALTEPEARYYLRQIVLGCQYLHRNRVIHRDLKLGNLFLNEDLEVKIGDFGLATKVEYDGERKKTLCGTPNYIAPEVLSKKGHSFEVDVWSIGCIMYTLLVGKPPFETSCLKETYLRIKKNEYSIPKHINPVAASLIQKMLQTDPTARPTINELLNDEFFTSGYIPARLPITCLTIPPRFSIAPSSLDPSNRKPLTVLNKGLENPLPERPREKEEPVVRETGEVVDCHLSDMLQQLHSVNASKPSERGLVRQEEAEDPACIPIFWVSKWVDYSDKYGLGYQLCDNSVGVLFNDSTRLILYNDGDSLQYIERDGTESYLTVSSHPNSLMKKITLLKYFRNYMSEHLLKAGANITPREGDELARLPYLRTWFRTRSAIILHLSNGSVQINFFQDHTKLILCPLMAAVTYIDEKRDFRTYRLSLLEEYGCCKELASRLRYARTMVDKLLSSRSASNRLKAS
T18 sequence (Q9P1W9 whole entry, species assumed): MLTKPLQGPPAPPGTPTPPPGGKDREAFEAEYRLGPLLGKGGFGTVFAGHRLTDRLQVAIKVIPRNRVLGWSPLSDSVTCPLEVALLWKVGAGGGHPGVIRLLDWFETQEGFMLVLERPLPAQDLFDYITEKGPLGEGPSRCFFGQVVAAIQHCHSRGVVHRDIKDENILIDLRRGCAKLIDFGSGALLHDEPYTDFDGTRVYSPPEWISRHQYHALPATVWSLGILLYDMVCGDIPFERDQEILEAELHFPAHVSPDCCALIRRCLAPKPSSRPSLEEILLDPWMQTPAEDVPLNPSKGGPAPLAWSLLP
T29 sequence (P07947 whole entry, species assumed): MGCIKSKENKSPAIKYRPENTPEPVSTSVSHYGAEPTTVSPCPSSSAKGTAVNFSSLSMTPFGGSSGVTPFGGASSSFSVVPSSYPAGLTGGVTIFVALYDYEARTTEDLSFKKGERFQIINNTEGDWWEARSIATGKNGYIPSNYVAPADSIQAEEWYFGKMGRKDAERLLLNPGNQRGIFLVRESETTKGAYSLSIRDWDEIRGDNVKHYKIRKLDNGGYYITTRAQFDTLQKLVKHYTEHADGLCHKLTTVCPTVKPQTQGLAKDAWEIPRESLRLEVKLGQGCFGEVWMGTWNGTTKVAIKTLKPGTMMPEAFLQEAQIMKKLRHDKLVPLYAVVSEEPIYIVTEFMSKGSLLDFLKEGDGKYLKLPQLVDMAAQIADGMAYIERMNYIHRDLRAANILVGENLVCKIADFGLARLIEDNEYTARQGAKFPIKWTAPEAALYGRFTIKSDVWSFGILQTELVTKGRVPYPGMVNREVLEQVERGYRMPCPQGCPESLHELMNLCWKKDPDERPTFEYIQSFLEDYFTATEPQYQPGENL
T14 sequence (Q16513 whole entry, species assumed): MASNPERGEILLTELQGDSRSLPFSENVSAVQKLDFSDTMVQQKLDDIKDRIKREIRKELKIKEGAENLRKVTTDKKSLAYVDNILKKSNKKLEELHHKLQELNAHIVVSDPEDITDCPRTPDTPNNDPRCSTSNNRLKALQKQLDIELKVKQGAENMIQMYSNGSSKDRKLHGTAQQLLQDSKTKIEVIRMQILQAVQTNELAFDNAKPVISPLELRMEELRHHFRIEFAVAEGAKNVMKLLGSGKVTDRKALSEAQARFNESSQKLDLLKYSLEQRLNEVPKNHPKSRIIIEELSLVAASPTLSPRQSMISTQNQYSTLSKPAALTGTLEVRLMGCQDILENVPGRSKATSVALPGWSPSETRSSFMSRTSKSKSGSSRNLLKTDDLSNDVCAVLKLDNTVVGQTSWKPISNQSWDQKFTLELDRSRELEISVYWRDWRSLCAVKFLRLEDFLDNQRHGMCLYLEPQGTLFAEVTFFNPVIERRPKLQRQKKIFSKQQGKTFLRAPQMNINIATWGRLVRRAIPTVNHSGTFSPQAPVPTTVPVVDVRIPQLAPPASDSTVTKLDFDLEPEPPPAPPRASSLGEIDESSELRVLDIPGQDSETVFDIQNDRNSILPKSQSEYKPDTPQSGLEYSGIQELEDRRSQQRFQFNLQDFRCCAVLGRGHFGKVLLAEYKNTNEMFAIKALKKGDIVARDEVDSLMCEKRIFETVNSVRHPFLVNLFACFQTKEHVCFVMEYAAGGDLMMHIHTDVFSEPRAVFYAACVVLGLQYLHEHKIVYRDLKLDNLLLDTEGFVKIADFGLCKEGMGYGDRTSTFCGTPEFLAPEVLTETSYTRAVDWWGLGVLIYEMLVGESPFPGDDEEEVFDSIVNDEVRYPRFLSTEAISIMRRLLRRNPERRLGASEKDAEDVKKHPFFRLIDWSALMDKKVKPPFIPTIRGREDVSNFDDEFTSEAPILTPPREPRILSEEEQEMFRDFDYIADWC
T1 sequence (O14920 whole entry, species assumed): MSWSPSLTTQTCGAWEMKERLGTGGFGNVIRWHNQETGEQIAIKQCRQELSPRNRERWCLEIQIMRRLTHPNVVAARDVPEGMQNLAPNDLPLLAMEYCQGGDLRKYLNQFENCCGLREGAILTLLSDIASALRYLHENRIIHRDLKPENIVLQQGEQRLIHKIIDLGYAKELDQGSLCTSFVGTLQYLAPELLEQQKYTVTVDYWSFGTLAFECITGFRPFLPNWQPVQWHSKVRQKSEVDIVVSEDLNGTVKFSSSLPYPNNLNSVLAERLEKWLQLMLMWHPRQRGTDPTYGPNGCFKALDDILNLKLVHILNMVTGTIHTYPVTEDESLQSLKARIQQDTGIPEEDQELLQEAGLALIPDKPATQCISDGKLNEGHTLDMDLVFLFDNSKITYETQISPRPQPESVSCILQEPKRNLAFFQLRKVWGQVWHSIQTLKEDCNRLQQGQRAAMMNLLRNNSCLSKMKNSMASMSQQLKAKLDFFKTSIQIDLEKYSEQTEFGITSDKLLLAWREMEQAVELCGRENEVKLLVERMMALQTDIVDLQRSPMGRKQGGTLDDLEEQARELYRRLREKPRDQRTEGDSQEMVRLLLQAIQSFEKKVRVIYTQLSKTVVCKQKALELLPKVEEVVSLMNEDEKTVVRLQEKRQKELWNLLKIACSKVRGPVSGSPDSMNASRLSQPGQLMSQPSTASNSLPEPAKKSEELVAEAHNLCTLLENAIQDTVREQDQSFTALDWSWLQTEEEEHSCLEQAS
T9 sequence (P11309 whole entry, species assumed): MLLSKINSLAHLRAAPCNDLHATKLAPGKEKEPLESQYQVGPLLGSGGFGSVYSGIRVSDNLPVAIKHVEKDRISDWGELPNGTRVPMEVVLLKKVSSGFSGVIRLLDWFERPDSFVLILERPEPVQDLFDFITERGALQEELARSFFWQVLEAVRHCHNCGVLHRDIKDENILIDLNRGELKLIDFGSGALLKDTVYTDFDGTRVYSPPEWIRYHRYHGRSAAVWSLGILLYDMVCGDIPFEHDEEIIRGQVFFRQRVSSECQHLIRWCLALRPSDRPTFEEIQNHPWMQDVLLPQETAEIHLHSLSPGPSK
T26 sequence (Q06187 whole entry, species assumed): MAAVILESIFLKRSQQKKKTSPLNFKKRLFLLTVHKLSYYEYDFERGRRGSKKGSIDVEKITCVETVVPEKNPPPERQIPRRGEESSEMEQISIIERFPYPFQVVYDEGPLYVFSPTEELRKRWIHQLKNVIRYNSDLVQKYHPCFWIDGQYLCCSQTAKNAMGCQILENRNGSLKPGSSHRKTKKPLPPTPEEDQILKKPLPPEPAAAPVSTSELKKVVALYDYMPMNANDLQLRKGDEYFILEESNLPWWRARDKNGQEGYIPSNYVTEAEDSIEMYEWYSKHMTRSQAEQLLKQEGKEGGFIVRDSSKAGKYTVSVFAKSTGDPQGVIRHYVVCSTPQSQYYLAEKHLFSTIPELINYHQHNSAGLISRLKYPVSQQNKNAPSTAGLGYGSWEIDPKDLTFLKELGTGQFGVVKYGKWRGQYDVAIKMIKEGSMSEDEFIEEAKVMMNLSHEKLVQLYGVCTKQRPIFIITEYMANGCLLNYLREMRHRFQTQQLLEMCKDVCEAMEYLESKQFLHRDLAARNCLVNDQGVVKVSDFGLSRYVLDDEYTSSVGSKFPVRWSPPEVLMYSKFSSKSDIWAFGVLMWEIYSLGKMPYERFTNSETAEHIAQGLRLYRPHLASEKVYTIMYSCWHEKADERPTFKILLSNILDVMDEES
T30 sequence (P23443 whole entry, species assumed): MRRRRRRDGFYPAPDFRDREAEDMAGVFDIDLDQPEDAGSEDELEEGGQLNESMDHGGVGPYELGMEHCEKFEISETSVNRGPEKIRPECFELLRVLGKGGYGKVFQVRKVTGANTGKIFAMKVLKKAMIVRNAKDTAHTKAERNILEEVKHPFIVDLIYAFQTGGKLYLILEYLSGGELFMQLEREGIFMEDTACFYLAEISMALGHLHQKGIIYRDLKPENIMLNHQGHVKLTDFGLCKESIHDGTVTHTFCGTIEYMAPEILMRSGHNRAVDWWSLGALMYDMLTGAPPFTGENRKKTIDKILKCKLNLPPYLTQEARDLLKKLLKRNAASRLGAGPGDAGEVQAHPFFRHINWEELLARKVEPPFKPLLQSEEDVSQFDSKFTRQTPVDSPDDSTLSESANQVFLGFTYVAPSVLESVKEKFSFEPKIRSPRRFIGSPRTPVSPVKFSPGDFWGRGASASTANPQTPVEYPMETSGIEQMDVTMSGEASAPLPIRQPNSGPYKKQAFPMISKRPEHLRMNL

Compound | inhibition at 1 µM (IKK-beta) [%] | % inhibition Pim-3 (Pim-3) [%] | % inhibition CHK2 (CHK2) [%] | inhibition at 1 µM (Syk) [%] | % inhibition CDK2/cyclin A (CDK2/cyclin A) [%] | inhibition at 1 µM (SAPK2-alpha) [%] | inhibition at 1 µM (TBK1) [%] | % inhibition PDK1 (PDK1) [%] | % inhibition MAPK8 (MAPK8) [%] | % inhibition Pim-1 (Pim-1) [%] | inhibition at 1 µM (SGK) [%] | % inhibition PBK (PBK) [%] | % inhibition AMPK (AMPK) [%] | % inhibition MELK (MELK) [%] | % inhibition MKK1 (MKK1) [%] | inhibition at 1 µM (PRK2) [%] | % inhibition Nek2a (Nek2a) [%] | inhibition at 1 µM (ROCK-II) [%] | % inhibition MST2 (MST2) [%] | % inhibition PIM-2 (PIM-2) [%] | other results
Fc1cnc2nc1NC1CCCC(C1)OC/C=C\COc1cccc(c1)N2 (single isomer, unassigned) [Example 33, (16Z)-6-fluoro-14,19-dioxa-2,4,8,26-tetraazatetracyclo[18.3.1.1˜3,7˜0.1˜9,13˜]hexacosa-1(24),3(26),4,6,16,20,22-heptaene] | 78 | 84 | 77 | 84 | 60 | 76 | 97 | 91 | 61 | 65 | 87 | 89 | 76 | 101 | 71 | 97 | 82 | 79 | 61 | 85 | inhibition at 1 µM (IR): 67%; inhibition at 1 µM (SAPK2-beta): 83%; % inhibition CK1-delta (CK1-delta): 85%; % inhibition CHK1 (CHK1): 98%; inhibition at 1 µM (DYRK3): 99%; % inhibition CK2 (CK2): 96%; % inhibition PKC-alpha (PKC-alpha): 57%; inhibition at 1 µM (LCK): 54%; % inhibition BTK (BTK): 37%; % inhibition PKB-alpha (PKB-alpha): 85%; inhibition at 1 µM (CSK): 86%; inhibition at 1 µM (YES1): 49%; inhibition at 1 µM (S6K1): 74%; % inhibition PLK1 (PLK1): 63% and 92%; inhibition at 1 µM (EphB3): 54%
NC(=O)[C@H]1[C@H]2C[C@H]3[C@H]1Nc1nc(ncc1F)Nc1cccc(c1)CSS[C@@H]3C2 [Example 10] | 82 | 63 | 12 | 52 | 94 | 89 | 100 | 73 | 9 | 61 | 82 | 99 | 38 | 36 | 13 | 43 | 66 | 75 | 8 | 70 | inhibition at 1 µM (IR): 37%; inhibition at 1 µM (SAPK2-beta): 81%; % inhibition CK1-delta (CK1-delta): 92%; % inhibition CHK1 (CHK1): 73%; inhibition at 1 µM (DYRK3): 78%; % inhibition CK2 (CK2): 91%; % inhibition PKC-alpha (PKC-alpha): 56%; inhibition at 1 µM (LCK): 14%; % inhibition BTK (BTK): 2%; % inhibition PKB-alpha (PKB-alpha): 93%; inhibition at 1 µM (CSK): 56%; inhibition at 1 µM (YES1): 9%; inhibition at 1 µM (S6K1): 94%; % inhibition PLK1 (PLK1): 4% and 12%; inhibition at 1 µM (EphB3): 4%
